Read-outs that look alike come from different tables or passages of the source.
Key:
Assay in all cases: biochemical
Format in all cases: binding
[1] = target: 468 kinases including some pathogenic mutants (Homo sapiens, UniProt O75116); conditions: ROCK2 (Entrez ROCK2), 100 nM; read-out: Percent Control
[2] = target: 468 kinases including some pathogenic mutants (Homo sapiens, UniProt P00519, F317I); conditions: read-out: Percent Control
[3] = target: 468 kinases including some pathogenic mutants (Homo sapiens, UniProt P06239); conditions: LCK (Entrez LCK), 100 nM; read-out: Percent Control
[4] = target: 468 kinases including some pathogenic mutants (Homo sapiens, UniProt P07949); conditions: RET (Entrez RET), 1000 nM; read-out: Percent Control
[5] = target: 468 kinases including some pathogenic mutants (Homo sapiens, UniProt P07949, V804M); conditions: read-out: Percent Control
[6] = target: 468 kinases including some pathogenic mutants (Homo sapiens, UniProt P10721); conditions: 100 nM, read-out: Percent Control
[7] = target: 468 kinases including some pathogenic mutants (Homo sapiens, UniProt P10721, D816V); conditions: read-out: Percent Control
[8] = target: 468 kinases including some pathogenic mutants (Homo sapiens, UniProt P10721, V559D); conditions: read-out: Percent Control
[9] = target: 468 kinases including some pathogenic mutants (Homo sapiens, UniProt P17612); conditions: PKAC-alpha (Entrez PRKACA), 1000 nM; read-out: Percent Control
[10] = target: 468 kinases including some pathogenic mutants (Homo sapiens, UniProt P41743); conditions: PRKCI (Entrez PRKCI), 100 nM; read-out: Percent Control
[11] = target: 468 kinases including some pathogenic mutants (Homo sapiens, UniProt P42336, E542K); conditions: read-out: Percent Control
[12] = target: 468 kinases including some pathogenic mutants (Homo sapiens, UniProt P51451); conditions: BLK (Entrez BLK), 100 nM; read-out: Percent Control
[13] = target: 468 kinases including some pathogenic mutants (Homo sapiens, UniProt Q02156); conditions: PRKCE (Entrez PRKCE), 1000 nM; read-out: Percent Control
[14] = target: 468 kinases including some pathogenic mutants (Homo sapiens, UniProt Q13188); conditions: MST2 (Entrez STK3), 100 nM; read-out: Percent Control
[15] = target: 468 kinases including some pathogenic mutants (Homo sapiens, UniProt Q13523); conditions: PRP4 (Entrez PRPF4B), 1000 nM; read-out: Percent Control
[16] = target: 468 kinases including some pathogenic mutants (Homo sapiens, UniProt Q6P3R8); conditions: NEK5 (Entrez NEK5), 100 nM; read-out: Percent Control
[17] = target: 468 kinases including some pathogenic mutants (Homo sapiens, UniProt Q8WU08); conditions: YANK1 (Entrez STK32A), 100 nM; read-out: Percent Control
[18] = target: 468 kinases including some pathogenic mutants (Homo sapiens, UniProt Q96BR1); conditions: SGK3 (Entrez SGK3), 100 nM; read-out: Percent Control
[19] = target: 468 kinases including some pathogenic mutants (Homo sapiens, UniProt Q96J92); conditions: WNK4 (Entrez WNK4), 1000 nM; read-out: Percent Control
[20] = target: 468 kinases including some pathogenic mutants (Homo sapiens, UniProt Q96L34); conditions: MARK4 (Entrez MARK4), 1000 nM; read-out: Percent Control
[21] = target: 468 kinases including some pathogenic mutants (Homo sapiens, UniProt Q9BQI3); conditions: EIF2AK1 (Entrez EIF2AK1), 100 nM; read-out: Percent Control
[22] = target: 468 kinases including some pathogenic mutants (Homo sapiens, UniProt Q9BRS2); conditions: RIOK1 (Entrez RIOK1), 100 nM; read-out: Percent Control
[23] = target: 468 kinases including some pathogenic mutants (Homo sapiens, UniProt Q9BVS4); conditions: RIOK2 (Entrez RIOK2), 1000 nM; read-out: Percent Control
[24] = target: 468 kinases including some pathogenic mutants (Homo sapiens, UniProt Q9H2G2); conditions: SLK (Entrez SLK), 100 nM; read-out: Percent Control
[25] = target: 468 kinases including some pathogenic mutants (Homo sapiens, UniProt Q9NSY1); conditions: BIKE (Entrez BMP2K), 100 nM; read-out: Percent Control
[26] = target: 468 kinases including some pathogenic mutants (Homo sapiens, UniProt Q9P286); conditions: PAK7 (Entrez PAK7), 100 nM; read-out: Percent Control
[27] = target: 468 kinases including some pathogenic mutants (Homo sapiens, UniProt Q9UKE5); conditions: TNIK (Entrez TNIK), 100 nM; read-out: Percent Control
[28] = target: 468 kinases including some pathogenic mutants (Homo sapiens, UniProt Q9UQM7); conditions: CAMK2A (Entrez CAMK2A), 100 nM; read-out: Percent Control
[29] = target: 468 kinases including some pathogenic mutants (Homo sapiens, UniProt Q9Y4K4); conditions: MAP4K5 (Entrez MAP4K5), 100 nM; read-out: Percent Control

468 kinases including some pathogenic mutants (Homo sapiens, UniProt P10721), sequence (P10721 26-976, stated change not applied): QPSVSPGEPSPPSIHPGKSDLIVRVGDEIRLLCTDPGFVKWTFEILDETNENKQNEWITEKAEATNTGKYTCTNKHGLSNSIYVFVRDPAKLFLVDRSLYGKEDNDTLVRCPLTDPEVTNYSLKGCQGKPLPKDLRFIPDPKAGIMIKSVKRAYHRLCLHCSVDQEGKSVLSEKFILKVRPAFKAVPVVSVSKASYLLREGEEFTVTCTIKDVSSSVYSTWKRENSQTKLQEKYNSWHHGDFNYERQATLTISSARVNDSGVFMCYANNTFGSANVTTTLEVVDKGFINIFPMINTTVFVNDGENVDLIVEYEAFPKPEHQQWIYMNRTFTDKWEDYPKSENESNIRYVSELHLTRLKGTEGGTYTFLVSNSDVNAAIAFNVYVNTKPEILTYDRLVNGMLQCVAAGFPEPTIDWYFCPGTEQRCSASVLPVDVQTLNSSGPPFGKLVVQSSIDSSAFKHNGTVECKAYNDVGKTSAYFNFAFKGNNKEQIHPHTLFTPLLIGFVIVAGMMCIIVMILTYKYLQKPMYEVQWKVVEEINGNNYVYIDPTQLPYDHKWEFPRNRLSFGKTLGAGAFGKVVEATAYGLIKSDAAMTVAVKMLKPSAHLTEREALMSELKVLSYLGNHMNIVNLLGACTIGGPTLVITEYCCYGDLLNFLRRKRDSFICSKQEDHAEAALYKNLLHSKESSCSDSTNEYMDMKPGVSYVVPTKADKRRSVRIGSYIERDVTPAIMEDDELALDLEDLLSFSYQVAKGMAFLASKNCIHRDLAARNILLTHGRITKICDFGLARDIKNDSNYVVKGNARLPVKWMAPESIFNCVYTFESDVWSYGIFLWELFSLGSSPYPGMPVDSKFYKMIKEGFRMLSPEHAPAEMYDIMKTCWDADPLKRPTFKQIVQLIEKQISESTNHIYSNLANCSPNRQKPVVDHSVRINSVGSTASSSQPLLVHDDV
468 kinases including some pathogenic mutants (Homo sapiens, UniProt Q13523), sequence (Q13523 whole entry, change not shown): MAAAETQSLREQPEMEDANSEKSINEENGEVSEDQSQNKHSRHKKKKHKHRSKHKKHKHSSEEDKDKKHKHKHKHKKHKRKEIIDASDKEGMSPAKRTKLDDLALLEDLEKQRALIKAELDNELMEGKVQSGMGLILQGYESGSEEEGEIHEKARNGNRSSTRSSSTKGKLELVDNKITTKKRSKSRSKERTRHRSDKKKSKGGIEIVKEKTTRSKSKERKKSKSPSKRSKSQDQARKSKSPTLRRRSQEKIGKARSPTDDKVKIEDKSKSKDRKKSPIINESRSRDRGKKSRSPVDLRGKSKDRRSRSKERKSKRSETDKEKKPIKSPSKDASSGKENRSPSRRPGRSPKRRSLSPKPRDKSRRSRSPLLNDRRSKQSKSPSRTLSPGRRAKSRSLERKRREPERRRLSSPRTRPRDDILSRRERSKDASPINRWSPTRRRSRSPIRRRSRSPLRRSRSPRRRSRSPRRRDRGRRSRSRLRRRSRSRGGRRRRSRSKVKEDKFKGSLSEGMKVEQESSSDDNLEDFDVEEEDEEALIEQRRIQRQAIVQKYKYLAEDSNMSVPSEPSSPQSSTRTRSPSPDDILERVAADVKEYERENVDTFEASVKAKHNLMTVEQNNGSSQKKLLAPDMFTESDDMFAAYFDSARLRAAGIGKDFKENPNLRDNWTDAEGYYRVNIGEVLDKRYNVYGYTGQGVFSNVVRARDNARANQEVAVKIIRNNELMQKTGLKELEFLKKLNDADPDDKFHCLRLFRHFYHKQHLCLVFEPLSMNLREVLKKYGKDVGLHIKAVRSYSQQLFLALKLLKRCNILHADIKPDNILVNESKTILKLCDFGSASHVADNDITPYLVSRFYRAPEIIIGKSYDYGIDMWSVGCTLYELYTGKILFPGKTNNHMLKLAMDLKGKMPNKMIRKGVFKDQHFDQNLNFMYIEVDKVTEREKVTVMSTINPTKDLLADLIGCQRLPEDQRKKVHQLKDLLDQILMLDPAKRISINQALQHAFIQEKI
468 kinases including some pathogenic mutants (Homo sapiens, UniProt P51451), sequence (P51451 whole entry, change not shown): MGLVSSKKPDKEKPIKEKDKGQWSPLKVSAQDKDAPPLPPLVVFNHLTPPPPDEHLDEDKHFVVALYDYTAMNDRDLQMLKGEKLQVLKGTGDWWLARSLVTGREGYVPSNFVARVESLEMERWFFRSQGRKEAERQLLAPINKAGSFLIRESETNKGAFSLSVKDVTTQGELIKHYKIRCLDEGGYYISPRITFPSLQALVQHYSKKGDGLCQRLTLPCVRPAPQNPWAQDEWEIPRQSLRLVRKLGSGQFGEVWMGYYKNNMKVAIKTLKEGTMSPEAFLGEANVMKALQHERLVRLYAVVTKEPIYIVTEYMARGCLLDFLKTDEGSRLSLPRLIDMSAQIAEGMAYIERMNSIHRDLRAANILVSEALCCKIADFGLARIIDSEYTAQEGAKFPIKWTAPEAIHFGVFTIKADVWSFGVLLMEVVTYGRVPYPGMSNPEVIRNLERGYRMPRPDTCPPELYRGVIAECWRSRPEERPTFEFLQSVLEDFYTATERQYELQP
468 kinases including some pathogenic mutants (Homo sapiens, UniProt P10721, D816V), sequence (P10721 26-976 D816V): as the sequence (P10721 26-976, stated change not applied) above, with D791V counted along it
468 kinases including some pathogenic mutants (Homo sapiens, UniProt Q9BRS2), sequence (Q9BRS2 whole entry, change not shown): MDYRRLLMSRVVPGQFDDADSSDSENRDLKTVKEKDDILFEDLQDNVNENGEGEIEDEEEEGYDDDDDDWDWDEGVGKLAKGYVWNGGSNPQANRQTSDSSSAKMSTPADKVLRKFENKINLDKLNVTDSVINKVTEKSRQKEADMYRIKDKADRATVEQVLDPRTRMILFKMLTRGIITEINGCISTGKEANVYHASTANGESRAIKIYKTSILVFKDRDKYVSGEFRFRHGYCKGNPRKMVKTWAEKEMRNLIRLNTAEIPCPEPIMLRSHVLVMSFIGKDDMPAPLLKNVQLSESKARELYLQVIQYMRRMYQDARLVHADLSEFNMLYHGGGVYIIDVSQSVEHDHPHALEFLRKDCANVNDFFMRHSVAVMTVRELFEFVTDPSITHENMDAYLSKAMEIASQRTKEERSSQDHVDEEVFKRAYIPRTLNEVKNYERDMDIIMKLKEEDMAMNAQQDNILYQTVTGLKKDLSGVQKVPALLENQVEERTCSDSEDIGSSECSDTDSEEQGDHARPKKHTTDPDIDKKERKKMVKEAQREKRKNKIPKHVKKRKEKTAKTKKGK
468 kinases including some pathogenic mutants (Homo sapiens, UniProt P07949, V804M), sequence (P07949 29-1114 V804M): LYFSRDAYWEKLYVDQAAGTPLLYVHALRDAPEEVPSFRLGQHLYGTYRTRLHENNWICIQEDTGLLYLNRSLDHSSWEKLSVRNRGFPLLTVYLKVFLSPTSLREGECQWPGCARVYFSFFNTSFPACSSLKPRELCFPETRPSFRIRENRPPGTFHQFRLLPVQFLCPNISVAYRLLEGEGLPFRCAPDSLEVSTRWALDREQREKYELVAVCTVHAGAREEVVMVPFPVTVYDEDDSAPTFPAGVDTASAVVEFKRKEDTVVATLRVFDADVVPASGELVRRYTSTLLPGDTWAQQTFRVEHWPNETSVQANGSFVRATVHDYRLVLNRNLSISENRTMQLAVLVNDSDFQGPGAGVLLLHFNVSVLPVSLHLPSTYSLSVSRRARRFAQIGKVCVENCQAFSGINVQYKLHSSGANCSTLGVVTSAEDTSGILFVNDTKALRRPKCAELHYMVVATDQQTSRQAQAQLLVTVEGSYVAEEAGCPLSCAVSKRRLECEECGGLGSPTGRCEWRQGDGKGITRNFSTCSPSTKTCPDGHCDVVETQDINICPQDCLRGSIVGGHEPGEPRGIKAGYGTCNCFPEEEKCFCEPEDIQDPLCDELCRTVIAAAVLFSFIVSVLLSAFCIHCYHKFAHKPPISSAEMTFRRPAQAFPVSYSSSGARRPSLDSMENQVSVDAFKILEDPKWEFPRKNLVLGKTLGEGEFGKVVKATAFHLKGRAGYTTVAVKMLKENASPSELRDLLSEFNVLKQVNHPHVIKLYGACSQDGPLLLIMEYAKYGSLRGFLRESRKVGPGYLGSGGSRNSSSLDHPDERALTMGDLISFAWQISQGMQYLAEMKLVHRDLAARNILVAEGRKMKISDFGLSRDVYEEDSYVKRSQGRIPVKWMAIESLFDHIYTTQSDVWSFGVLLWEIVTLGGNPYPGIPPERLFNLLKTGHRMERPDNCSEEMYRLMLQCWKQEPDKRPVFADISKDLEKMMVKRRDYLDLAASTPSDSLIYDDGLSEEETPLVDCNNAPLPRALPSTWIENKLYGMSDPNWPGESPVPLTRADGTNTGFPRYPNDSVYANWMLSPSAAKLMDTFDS

## CN1C(=O)[C@@H](N2CCc3c(nn(Cc4ccccc4)c3C(N)=O)C2=O)COc2cc(Cl)ccc21 [Compound 10, (S)-2-benzyl-6-(8-chloro-5-methyl-4-oxo-2,3,4,5-tetrahydrobenzo[b][1,4]oxazepin-3-yl)-7-oxo-4,5,6,7-tetrahydro-2H-pyrazolo[3,4-c]pyridine-3-carboxamide]
[1]
  remaining activity at 0.1 µM: 75%
[2]
  remaining activity at 0.1 µM: 87%
[3]
  remaining activity at 0.1 µM: 100%
[4]
  remaining activity at 1 µM: 100%
[5]
  remaining activity at 0.1 µM: 87%
[6]; KIT (Entrez KIT)
  remaining activity at 0.1 µM: 69%
[6]; KIT-autoinhibited (Entrez KIT)
  remaining activity at 0.1 µM: 100%
[7]
  remaining activity at 1 µM: 100%
[8]
  remaining activity at 0.1 µM: 69%
[9]
  remaining activity at 1 µM: 100%
[10]
  remaining activity at 0.1 µM: 81%
[11]
  remaining activity at 0.1 µM: 62%
[12]
  remaining activity at 0.1 µM: 84%
[13]
  remaining activity at 1 µM: 100%
[14]
  remaining activity at 0.1 µM: 64%
[15]
  remaining activity at 1 µM: 100%
[16]
  remaining activity at 0.1 µM: 87%
[17]
  remaining activity at 0.1 µM: 89%
[18]
  remaining activity at 0.1 µM: 90%
[19]
  remaining activity at 1 µM: 100%
[20]
  remaining activity at 1 µM: 100%
[21]
  remaining activity at 0.1 µM: 100%
[22]
  remaining activity at 0.1 µM: 63%
[23]
  remaining activity at 1 µM: 100%
[24]
  remaining activity at 0.1 µM: 89%
[25]
  remaining activity at 0.1 µM: 67%
[26]
  remaining activity at 0.1 µM: 80%
[27]
  remaining activity at 0.1 µM: 100%
[28]
  remaining activity at 0.1 µM: 76%
[29]
  remaining activity at 0.1 µM: 100%
